This is an account of results in patent US12453784B2 (priority 2018, dated 2025).

The conditions of data set [1]: test infusion, 500 μL to each motor cortex.
For data set [2], the system named is release of neurotransmitters including acetylcholine, norepinephrine, and glutamate. To be noted: in vivo; cited from earlier work.

As for `[Gd]` [gadolinium], the motor cortical coverage entry in data set [1] is given as “satisfactory motor cortical coverage”.

Botulinum toxin type A: the “period of reversible inhibition of neurotransmitter release” value in data set [2] is 2-6 months.
